Experimental findings from US9676784B2, “Fused imidazolyl derivatives, their preparation and use as medicaments” (LABORATORIOS DEL DR. ESTEVE S.A., priority 2013, dated 2017) are described below.

Counter-ions that a name gives are not always drawn.

The term Ki denotes the dissociation constant of the complex between target and ligand, obtained from inhibition or displacement. A lower Ki goes with a stronger hold on the target.

The target in the assay is σ1-receptor (Cavia porcellus, UniProt Q60492). In words: Binding assay for the σ1-receptor, [3H]-(+)-pentazocine, guinea pig brain membranes.
σ1-receptor, sequence (Q60492 whole entry): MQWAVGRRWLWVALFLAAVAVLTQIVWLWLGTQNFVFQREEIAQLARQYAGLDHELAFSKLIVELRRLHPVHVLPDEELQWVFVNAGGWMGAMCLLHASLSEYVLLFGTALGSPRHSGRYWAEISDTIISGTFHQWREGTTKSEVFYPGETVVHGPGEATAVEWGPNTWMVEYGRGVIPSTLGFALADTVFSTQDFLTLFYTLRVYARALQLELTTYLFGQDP
Protocol: Guinea pig brains were homogenized in 10 vols. (w/v) of Tris-HCl 50 mM 0.32 M sucrose, pH 7.4, with a Kinematica Polytron PT 3000 at 15000 r.p.m. for 30 s. The homogenate was centrifuged at 1000 g for 10 min at 4° C. and the supernatants collected and centrifuged again at 48000 g for 15 min at 4° C. The pellet was resuspended in 10 volumes of Tris-HCl buffer (50 mM, pH 7.4), incubated at 37° C. for 30 min, and centrifuged at 48000 g for 20 min at 4° C. Following this, the pellet was re-suspended in fresh Tris-HCl buffer (50 mM, pH 7.4) and stored on ice until use.
The radioligand used was [^3H]-(+)-pentazocine at 5.0 nM and the final volume was 200 μl. The incubation was initiated with the addition of 100 μl of membrane at a final tissue concentration of approximately 5 mg tissue net weight/mL and the incubation time was 150 m. at 37° C. After incubation, the membranes were collected onto pretreated glass fiber filterplate (MultiScreen-FC, Millipore), with polyethylenimine 0.1%. […] Nonspecific binding was determined with 1 μM haloperidol.
`Fc1ccc(Nc2ncc3n2CCN(CC2CCC(F)(F)CC2)C3)cc1` [Example 36, 7-((4,4-difluorocyclohexyl)methyl)-N-(4-fluorophenyl)-5,6,7,8-tetrahydroimidazo[1,5-a]pyrazin-3-amine] registered a Ki of 21 nM.
The compound `Fc1ccc(Nc2ncc3n2CCN(Cc2ccc(F)cn2)C3)cc1` [Example 37, N-(4-fluorophenyl)-7-((5-fluoropyridin-2-yl)methyl)-5,6,7,8-tetrahydroimidazo[1,5-a]pyrazin-3-amine] yielded an inhibition constant (Ki) of 293 nM.
For the compound `Fc1ccc(Nc2ncc3n2CCN(C2CCCCC2)C3)cc1` [Example 40, 7-cyclohexyl-N-(4-fluorophenyl)-5,6,7,8-tetrahydroimidazo[1,5-a]pyrazin-3-amine], the Ki was 68 nM.
On to `Oc1cccc(Nc2ncc3n2CCN(Cc2ccccc2)C3)c1` [Example 19, 3-(7-benzyl-5,6,7,8-tetrahydroimidazo[1,5-a]pyrazin-3-ylamino)phenol], for which the affinity, expressed as Ki, was 63 nM.
`Fc1ccc(Nc2ncc3n2CCN(Cc2ccc(F)nc2)C3)cc1` [Example 38, N-(4-fluorophenyl)-7-((6-fluoropyridin-3-yl)methyl)-5,6,7,8-tetrahydroimidazo[1,5-a]pyrazin-3-amine] showed a Ki of 311 nM.
To `Fc1ccc(Cc2ncc3n2CCN(CC2CCCCC2)C3)cc1` [Example 30, 7-(cyclohexylmethyl)-3-(4-fluorobenzyl)-5,6,7,8-tetrahydroimidazo[1,5-a]pyrazine hydrochloride] belongs 22 nM.
`Fc1ccc(Nc2ncc3n2CCN(Cc2ccc(F)cc2F)C3)cc1` [Example 35, 7-(2,4-difluorobenzyl)-N-(4-fluorophenyl)-5,6,7,8-tetrahydroimidazo[1,5-a]pyrazin-3-amine] showed a Ki of 37 nM.
Compound `Fc1ccc(CN2CCn3c(cnc3Nc3ccc(F)cn3)C2)cc1` [Example 20, 7-(4-fluorobenzyl)-N-(5-fluoropyridin-2-yl)-5,6,7,8-tetrahydroimidazo[1,5-a]pyrazin-3-amine] came in with a Ki of 67 nM.
`c1ccc(CNc2ncc3n2CCN(CC2CCCCC2)C3)cc1` [Example 27, N-Benzyl-7-(cyclohexylmethyl)-5,6,7,8-tetrahydroimidazo[1,5-a]pyrazin-3-amine] gave a Ki of 38 nM.
`Fc1c(Cl)cccc1Nc1ncc2n1CCN(Cc1ccccc1)C2` [Example 9, 7-benzyl-N-(3-chloro-2-fluorophenyl)-5,6,7,8-tetrahydroimidazo[1,5-a]pyrazin-3-amine]: the affinity corresponds to a Ki of 232 nM.
In the case of `CCCNC(=O)Nc1ncc2n1CCN(CC1CCCCC1)C2` [Example 3, 1-(7-(Cyclohexylmethyl)-5,6,7,8-tetrahydroimidazo[1,5-a]pyrazin-3-yl)-3-propylurea], the affinity corresponds to a Ki of 71 nM.
Compound `Fc1cc(F)cc(Nc2ncc3n2CCN(CC2CCCCC2)C3)c1` [Example 6, 7-(cyclohexylmethyl)-N-(3,5-difluorophenyl)-5,6,7,8-tetrahydroimidazo[1,5-a]pyrazin-3-amine] registered a Ki of 12 nM.
Take `c1ccc(CCN2CCn3c(cnc3Nc3ccccc3)C2)cc1` [Example 31, 7-Phenethyl-N-phenyl-5,6,7,8-tetrahydroimidazo[1,5-a]pyrazin-3-amine]: the Ki is 101 nM.
As to `c1ccc(Nc2ncc3n2CCN(CC2CCOCC2)C3)cc1` [Example 12, N-phenyl-7-((tetrahydro-2H-pyran-4-yl)methyl)-5,6,7,8-tetrahydroimidazo[1,5-a]pyrazin-3-amine], the Ki was 258 nM.
`Fc1cc(F)cc(Nc2ncc3n2CCCN(CC2CCOCC2)C3)c1` [Example 18, N-(3,5-difluorophenyl)-8-((tetrahydro-2H-pyran-4-yl)methyl)-6,7,8,9-tetrahydro-5H-imidazo[1,5-a][1,4]diazepin-3-amine] gave a Ki of 26 nM.
Under `CCNC(=O)Nc1ncc2n1CCN(CC1CCCCC1)C2` [Example 2, 1-(7-(Cyclohexylmethyl)-5,6,7,8-tetrahydroimidazo[1,5-a]pyrazin-3-yl)-3-ethylurea] stands 106 nM; under `Fc1ccc(Nc2ncc3n2CCCN(CC2CCOCC2)C3)cc1` [Example 16, N-(4-fluorophenyl)-8-((tetrahydro-2H-pyran-4-yl)methyl)-6,7,8,9-tetrahydro-5H-imidazo[1,5-a][1,4]diazepin-3-amine], 175 nM.
Under `CCC(=O)N(c1cccc(O)c1)c1ncc2n1CCN(CCc1ccccc1)C2` [Example 25, N-(3-hydroxyphenyl)-N-(7-phenethyl-5,6,7,8-tetrahydroimidazo[1,5-a]pyrazin-3-yl)propionamide] stands 358 nM.
Compound `Fc1c(Cl)cccc1Nc1ncc2n1CCCN(CC1CCOCC1)C2` [Example 17, N-(3-chloro-2-fluorophenyl)-8-((tetrahydro-2H-pyran-4-yl)methyl)-6,7,8,9-tetrahydro-5H-imidazo[1,5-a][1,4]diazepin-3-amine] came in with a Ki of 14 nM.
`Fc1ccc(Nc2ncc3n2CCN(CC2CCCCC2)C3)cc1` [Example 8, 7-(cyclohexylmethyl)-N-(4-fluorophenyl)-5,6,7,8-tetrahydroimidazo[1,5-a]pyrazin-3-amine]: the Ki stood at 8 nM.
In the case of `CCC(=O)N(c1cccc(O)c1)c1ncc2n1CCN(Cc1ccccc1)C2` [Example 24, N-(7-benzyl-5,6,7,8-tetrahydroimidazo[1,5-a]pyrazin-3-yl)-N-(3-hydroxyphenyl)propionamide], the Ki is 124 nM.
Under `Oc1cccc(Nc2ncc3n2CCN(CCc2ccccc2)C3)c1` [Example 34, 3-(7-phenethyl-5,6,7,8-tetrahydroimidazo[1,5-a]pyrazin-3-ylamino)phenol] stands 168 nM; under `Fc1ccc(Nc2ncc3n2CCN(Cc2ccccc2)C3)cc1` [Example 21, 7-benzyl-N-(4-fluorophenyl)-5,6,7,8-tetrahydroimidazo[1,5-a]pyrazin-3-amine], 44 nM.
Consider `COc1ccc(CN2CCn3c(cnc3Nc3ccc(F)cc3)C2)cn1` [Example 39, N-(4-fluorophenyl)-7-((6-methoxypyridin-3-yl)methyl)-5,6,7,8-tetrahydroimidazo[1,5-a]pyrazin-3-amine], for which affinity was put at a Ki of 373 nM.
For `c1ccc(Cc2ncc3n2CCN(CC2CCCCC2)C3)cc1` [Example 28, 3-Benzyl-7-(cyclohexylmethyl)-5,6,7,8-tetrahydroimidazo[1,5-a]pyrazine trifluoroacetate], the affinity corresponds to a Ki of 39 nM.
For the compound `CCNC(=O)Nc1ncc2n1CCCN(CC1CCCCC1)C2` [Example 1, 1-(8-(Cyclohexylmethyl)-6,7,8,9-tetrahydro-5H-imidazo[1,5-a][1,4]diazepin-3-yl)-3-ethylurea], the Ki was 179 nM.
To `COc1cccc(Nc2ncc3n2CCCN(CC2CCOCC2)C3)c1` [Example 15, N-(3-methoxyphenyl)-8-((tetrahydro-2H-pyran-4-yl)methyl)-6,7,8,9-tetrahydro-5H-imidazo[1,5-a][1,4]diazepin-3-amine] belongs 266 nM; to `c1ccc(Nc2ncc3n2CCN(CC2CCCCC2)C3)cc1` [Example 5, 7-(Cyclohexylmethyl)-N-phenyl-5,6,7,8-tetrahydroimidazo[1,5-a]pyrazin-3-amine], 8.2 nM.
In the case of `COc1cccc(Nc2ncc3n2CCN(CC2CCCCC2)C3)c1` [Example 7, 7-(cyclohexylmethyl)-N-(3-methoxyphenyl)-5,6,7,8-tetrahydroimidazo[1,5-a]pyrazin-3-amine], the Ki worked out at 13 nM.
